Source: patent US11643782B2, “Method for controlling growth of microorganisms and/or biofilms in an industrial process” (Kemira Oyj, priority 2017, dated 2023)

Legend:
Assay type in all cases: cell-based
[1] = tested on: Meiothermus silvanus biofilms; experiment: Prevention of biofilm formation (96-microwell peg-lid plates, Crystal Violet staining); conditions: for Biofilm quantity, Abs. at 595 nm / Biofilm reduction: 48 h contact time
Excerpt: (§1) Pure cultures of Meiothermus silvanus, a microbe species commonly found in paper machine biofilms (Ekman J, Journal of Industrial Microbiology & Biotechnology 34:203-211) and Pseudoxanthomonas taiwanensis, another species commonly found in paper machine environments (Desjardins, E & Beaulieu, C, Journal of Industrial Microbiology & Biotechnology 30:141-145) were used to study the efficacy of various chemicals to prevent biofilm formation.
(§2) Biofilm tests were done in either synthetic commercial R2-broth (Lab M Ltd, UK) or fibre-containing synthetic paper machine water, SPW (prepared according to Peltola, et al., J. Ind. Microbiol. Biotechnol. 2011, 38: 1719-1727) using 96-microwell plate wells with peg lids (Thermo Fischer Scientific Inc., USA). Plates were incubated at 45° C. with a rotary shaking (150 rpm) providing high flow in each well.
(§3) For experiments of preventing biofilm formation wells of 96-microwell plates with peg-lids were filled with R2-broth or SPW, inoculated with the pure bacterial cultures and treated with different amounts of chemical compounds to be tested. Peg-lid was put on. After 24 hours the wells were emptied and a fresh solution of pure culture containing SPW or R2 broth with different amounts of test chemicals were added to the wells and the original peg-lid was put back in place. After an additional 24 hours, i.e. 48 hours after starting the test, the wells were emptied, rinsed and the peg lid and wells were left to dry.
(§4) The amount of biofilm formed on the microwells and peg surfaces was quantified with a staining solution by adding 200 μl of 1% Crystal Violet (Merck Millipore KGaA, Germany) in methanol to each well and placing the peg-lid back on. After 3 minutes the wells were emptied and the wells and pegs were rinsed 3 times with tap water. The attached Crystal Violet was dissolved into ethanol and the absorbance at 595 nm was measured. The values shown in the following tables are average absorbance from 8 replicate wells and pegs.
(§5) All absorbance values in Examples 1-8 are given actual measured values. In calculation for biofilm reduction percentages it was taken in account that the SPW alone for 2 days without any bacterial inoculum gave a background value of 0.14.

[2] = tested on: Pseudoxanthomonas taiwanensis biofilms; experiment: Removal of existing (preformed) biofilm (96-microwell peg-lid plates, Crystal Violet staining); conditions: for Biofilm quantity, Abs. at 595 nm / Biofilm reduction: SPW, 45° C., 150 rpm, 24 h pre-growth and 24 h contact time; for Removal of already formed biofilms (in words): synthetic paper machine water, high temperature, fibres present, high flow
Excerpt: as §1, §2
(§6) For experiments of removing already existing (preformed) biofilm wells of 96-microwell plates with peg-lids were filled with SPW, inoculated with the pure bacterial cultures. Biofilm was grown for 24 hours without addition of any chemical compound to be tested. In some experiments after 24 hours the procedure was repeated by emptying the wells and by addition of a fresh solution of SPW inoculated with pure bacterial culture, again without any test chemical compound. The original peg-lid was put back in place and biofilm was allowed to grow for additional 24 h, i.e. in total 48 h.
(§7) After 24 or 48 hours after starting the test, the wells were emptied and a fresh solution of SPW, inoculated with the pure bacterial cultures and with different amounts of chemical compounds to be tested were added and the original peg-lid was placed back in place. After an additional 2 or 24 hours the wells were emptied, rinsed and the peg lid and wells were left to dry.
as §4, §5

[3] = tested on: Meiothermus silvanus biofilms; experiment: as above; conditions: for Biofilm quantity, Abs. at 595 nm / Biofilm reduction: SPW, 45° C., 150 rpm, 24 h pre-growth and 24 h contact time
Excerpt: as §1, §2, §6, §7, §4, §5

[4] = tested on: Pseudoxanthomonas taiwanensis biofilms; experiment: Prevention of biofilm formation (96-microwell peg-lid plates, Crystal Violet staining); conditions: for Biofilm quantity, Abs. at 595 nm / Biofilm reduction / Biofilm quantity, Abs at 595 nm: 48 h contact time
Excerpt: as §1, §2, §3, §4, §5

[5] = Table 5, dosage 0.06 mg/l active compound, SPW, 45° C., 150 rpm
[6] = Table 5, dosage 0.2 mg/l active compound, SPW, 45° C., 150 rpm
[7] = Table 9, dosage 0.2 mg/l active compound
[8] = Table 9, dosage 0.4 mg/l active compound
[9] = Table 7, dosage 0.2 mg/l active compound
[10] = Table 7, dosage 0.6 mg/l active compound
[11] = Table 6, dosage 0.06 mg/l active compound, SPW, 45° C., 150 rpm
[12] = Table 6, dosage 0.2 mg/l active compound, SPW, 45° C., 150 rpm
[13] = dosage 0.2 mg/l active compound
[14] = dosage 0.6 mg/l active compound
[15] = active compound, synthetic paper machine water, high temperature, fibres present, high flow
[16] = dosage 0.2 mg/l active ingredient, SPW, 45° C., 150 rpm
[17] = dosage 0.6 mg/l active ingredient, SPW, 45° C., 150 rpm
[18] = dosage 1 mg/l active ingredient, SPW, 45° C., 150 rpm

Q: `N#C/C=C/S(=O)(=O)c1ccccc1` [Compound C, (2E)-3-phenylsulphonyl-2-propenenitrile] was tested. Which “Biofilm quantity, Abs. at 595 nm” value [1, 5] did it give?
A: 0.64

Q: What about the Biofilm reduction [1, 5] of the same compound?
A: 29.7%

Q: What about the “Biofilm quantity, Abs. at 595 nm” value [1, 6] of the same compound?
A: 0.15

Q: And the Biofilm reduction [1, 6]?
A: 98.2%

Q: What about the “Biofilm quantity, Abs. at 595 nm” value [2, 7] of the same compound?
A: 0.15

Q: And the Biofilm reduction [2, 7]?
A: 98.5%

Q: What about the “Biofilm quantity, Abs. at 595 nm” value [2, 8] of the same compound?
A: 0.15

Q: What about the Biofilm reduction [2, 8] of the same compound?
A: 99.0%

Q: What about the “Removal of already formed biofilms (in words)” value (shortened to “Removal”) [2] of the same compound?
A: remove already formed biofilms

Q: For `Cc1cc(C)c(S(=O)(=O)/C=C/C#N)c(C)c1` [Compound D, (2E)-3-[(2,4,6-trimethylphenyl)sulphonyl]-2-propenenitrile], which “Biofilm quantity, Abs. at 595 nm” value [2, 9] is on record?
A: 2.07

Q: What about the Biofilm reduction [2, 9] of the same compound?
A: 8.4%

Q: And the “Biofilm quantity, Abs. at 595 nm” value [2, 10]?
A: 0.18

Q: And the Biofilm reduction [2, 10]?
A: 97.9%

Q: What about the “Removal” value [2] of the same compound?
A: remove already formed biofilms

Q: With `N#C/C=C/S(=O)(=O)c1ccc(C(F)(F)F)cc1` [Compound E, (2E)-3-[(4-trifluormethylphenyl)sulphonyl]-2-propenenitrile] as the compound, how does the “Biofilm quantity, Abs. at 595 nm” value [1, 11] read?
A: 1.43

Q: What about the Biofilm reduction [1, 11] of the same compound?
A: 38.8%

Q: What about the “Biofilm quantity, Abs. at 595 nm” value [1, 12] of the same compound?
A: 0.14

Q: What about the Biofilm reduction [1, 12] of the same compound?
A: 99.6%

Q: For `COc1ccc(S(=O)(=O)/C=C/C#N)cc1` [Compound F, (2E)-3-[(4-methoxyphenyl)sulphonyl]-2-propenenitrile], which “Biofilm quantity, Abs. at 595 nm” value [3, 13] is on record?
A: 1.21

Q: What about the Biofilm reduction [3, 13] of the same compound?
A: 6.4%

Q: What about the “Biofilm quantity, Abs. at 595 nm” value [3, 14] of the same compound?
A: 0.86

Q: What about the Biofilm reduction [3, 14] of the same compound?
A: 37.3%

Q: And the “Removal” value ([3]; synthetic paper machine water, high temperature, fibres present, high flow)?
A: remove already formed biofilms

Q: With `N#CC(Br)(Br)C(N)=O` [DBNPA, 2,2-dibromo-3-nitrilopropionamide] as the compound, how does the “Dosage required to reach acceptable or noticable biofilm reduction efficacy” value [1, 15] read?
A: 1 mg/I

Q: And the “Biofilm quantity, Abs. at 595 nm” value [1, 16]?
A: 0.57

Q: What about the Biofilm reduction [1, 16] of the same compound?
A: 16.9%

Q: What about the “Biofilm quantity, Abs. at 595 nm” value [1, 17] of the same compound?
A: 0.35

Q: What about the Biofilm reduction [1, 17] of the same compound?
A: 60.7%

Q: And the “Biofilm quantity, Abs. at 595 nm” value [1, 18]?
A: 0.15

Q: What about the Biofilm reduction [1, 18] of the same compound?
A: 98.8%

Q: What about the “Dosage required to reach acceptable or noticable biofilm reduction efficacy” value [4, 15] of the same compound?
A: 1 mg/I

Q: And the “Biofilm quantity, Abs. at 595 nm” value [4, 16]?
A: 1.46

Q: What about the Biofilm reduction [4, 16] of the same compound?
A: 12.6%

Q: What about the “Biofilm quantity, Abs. at 595 nm” value [4, 17] of the same compound?
A: 1.23

Q: What about the Biofilm reduction [4, 17] of the same compound?
A: 27.8%

Q: What about the “Biofilm quantity, Abs. at 595 nm” value [4, 18] of the same compound?
A: 0.14

Q: And the Biofilm reduction [4, 18]?
A: 99.9%

Q: How did the “Biofilm quantity, Abs. at 595 nm” value ([1]; dosage 0.2 mg/l, R2-broth) turn out when Gramicidin was run?
A: 1.40

Q: What about the Biofilm reduction ([1]; dosage 0.2 mg/l, R2-broth) of the same compound?
A: 13.7%

Q: What about the “Biofilm quantity, Abs. at 595 nm” value ([1]; dosage 0.2 mg/l, SPW) of the same compound?
A: 1.33

Q: And the Biofilm reduction ([1]; dosage 0.2 mg/l, SPW)?
A: 2.5%

Q: And the “Biofilm quantity, Abs. at 595 nm” value ([1]; dosage 1 mg/l, R2-broth)?
A: 0.66

Q: What about the Biofilm reduction ([1]; dosage 1 mg/l, R2-broth) of the same compound?
A: 64.4%

Q: And the “Biofilm quantity, Abs. at 595 nm” value ([1]; dosage 1 mg/l, SPW)?
A: 1.41

Q: And the Biofilm reduction ([1]; dosage 1 mg/l, SPW)?
A: −4.1%

Q: And the “Biofilm quantity, Abs. at 595 nm” value ([1]; dosage 3 mg/l, R2-broth)?
A: 0.17

Q: What about the Biofilm reduction ([1]; dosage 3 mg/l, R2-broth) of the same compound?
A: 97.9%

Q: And the “Biofilm quantity, Abs. at 595 nm” value ([1]; dosage 3 mg/l, SPW)?
A: 0.45

Q: What about the Biofilm reduction ([1]; dosage 3 mg/l, SPW) of the same compound?
A: 74.6%

Q: And the “Biofilm quantity, Abs. at 595 nm” value ([1]; dosage 10 mg/l, R2-broth)?
A: 0.14

Q: And the Biofilm reduction ([1]; dosage 10 mg/l, R2-broth)?
A: 100.0%

Q: And the “Biofilm quantity, Abs. at 595 nm” value ([1]; dosage 10 mg/l, SPW)?
A: 0.19

Q: And the Biofilm reduction ([1]; dosage 10 mg/l, SPW)?
A: 95.9%

Q: And the “Biofilm quantity, Abs. at 595 nm” value ([4]; dosage 3 mg/l, R2-broth)?
A: 2.80

Q: What about the Biofilm reduction ([4]; dosage 3 mg/l, R2-broth) of the same compound?
A: −0.8%

Q: And the “Biofilm quantity, Abs at 595 nm” value ([4]; dosage 3 mg/l, SPW)?
A: 2.25

Q: And the Biofilm reduction ([4]; dosage 3 mg/l, SPW)?
A: 5.4%

Q: What about the “Biofilm quantity, Abs. at 595 nm” value ([4]; dosage 10 mg/l, R2-broth) of the same compound?
A: 2.55

Q: What about the Biofilm reduction ([4]; dosage 10 mg/l, R2-broth) of the same compound?
A: 8.7%

Q: What about the “Biofilm quantity, Abs at 595 nm” value ([4]; dosage 10 mg/l, SPW) of the same compound?
A: 2.41

Q: What about the Biofilm reduction ([4]; dosage 10 mg/l, SPW) of the same compound?
A: −1.8%

Q: And the “Biofilm quantity, Abs. at 595 nm” value ([4]; dosage 25 mg/l, R2-broth)?
A: 0.19

Q: What about the Biofilm reduction ([4]; dosage 25 mg/l, R2-broth) of the same compound?
A: 98.1%

Q: And the “Biofilm quantity, Abs at 595 nm” value ([4]; dosage 25 mg/l, SPW)?
A: 2.42

Q: And the Biofilm reduction ([4]; dosage 25 mg/l, SPW)?
A: −2.2%
